Measurements as given in ChEMBL document CHEMBL1135808, “A new type of mixed anhydride and its applications to the synthesis of 7-substituted 8-chloro-5,5-dioxoimidazo[1,2-b][1,4,2]benzodithiazines with in vitro antitumor activity” (2002).

What was measured:
Assay type in all cases: functional
MCF7 = test: Log of molar concentration leading to 50% cell death against breast cancer MCF 7 cell line was reported; conditions: Homo sapiens, read-out: Log LC50 (the source's name) (converted)
A498 [1] = test: In vitro total growth inhibition against renal cancer A-498 cell lines was reported.; conditions: Homo sapiens, read-out: Log TGI (converted)
UACC-257 [2] = test: In vitro total growth inhibition against melanoma UACC-257 cell lines was reported.; conditions: Homo sapiens, read-out: Log TGI (converted)
786-0 [3] = test: Log of molar concentration leading to 50% cell death against renal cancer […] cell line was reported; conditions: Homo sapiens, read-out: Log LC50 (the source's name) (converted)
UO-31 = test: Log of molar concentration leading to 50% cell death against renal cancer UO-31 cell line was reported; conditions: Homo sapiens, read-out: Log LC50 (the source's name) (converted)
NCI-H226 [4] = test: Log of molar concentration leading to 50% cell death against non-small-cell lung cancer NCI-H226 cell line was reported; conditions: Homo sapiens, read-out: Log LC50 (the source's name) (converted)
OVCAR-4 = test: In vitro growth inhibition against ovarian cancer OVCAR-4 cell line was reported.; conditions: Homo sapiens
A498 [5] = test: In vitro growth inhibition against renal cancer A498 cell line was reported.; conditions: Homo sapiens
SK-MEL-5 = test: In vitro growth inhibition against melanoma SK-MEL-5 cell line was reported.; conditions: Homo sapiens
NCI-H226 [6] = test: In vitro growth inhibition against non-small-cell lung cancer NCI-H226 cell line was reported.; conditions: Homo sapiens
SK-MEL-28 = test: Log of molar concentration leading to 50% cell death against melanoma SK-MEL-28 cell line was reported; conditions: Homo sapiens, read-out: Log LC50 (the source's name) (converted)
HL-60 = test: In vitro total growth inhibition against leukemia HL-60(TB) cell lines was reported.; conditions: Homo sapiens, read-out: Log TGI (converted)
SK-MEL-2 = test: In vitro total growth inhibition against melanoma SK-MEL-2 cell lines was reported.; conditions: Homo sapiens, read-out: Log TGI (converted)
SN12C [7] = test: Log of molar concentration leading to 50% cell death against renal cancer SN12C cell line was reported; conditions: Homo sapiens, read-out: Log LC50 (the source's name) (converted)
SNB-75 = test: In vitro total growth inhibition against CNS cancer SNB-75 cell lines was reported.; conditions: Homo sapiens, read-out: Log TGI (converted)
SW-620 = test: In vitro growth inhibition against colon cancer SW620 cell line was reported.; conditions: Homo sapiens
SN12C [8] = test: In vitro total growth inhibition against renal cancer SN12C cell lines was reported.; conditions: Homo sapiens, read-out: Log TGI (converted)
COLO 205 = test: In vitro growth inhibition against colon cancer COLO 205 cell line was reported.; conditions: Homo sapiens
NCI-H522 = test: In vitro total growth inhibition against non-small-cell lung cancer NCI-522 cell lines was reported.; conditions: Homo sapiens, read-out: Log TGI (converted)
PC-3 = test: In vitro total growth inhibition against prostate cancer PC-3 cell lines was reported.; conditions: Homo sapiens, read-out: Log TGI (converted)
RXF 393 = test: In vitro growth inhibition against renal cancer RXF 393 cell line was reported.; conditions: Homo sapiens
NCI-H46 = test: In vitro growth inhibition against non-small-cell lung cancer […] cell line was reported.; conditions: Homo sapiens
BT-549 = test: Log of molar concentration leading to 50% cell death against breast cancer BT 549 cell line was reported; conditions: Homo sapiens, read-out: Log LC50 (the source's name) (converted)
TK-10 = test: Log of molar concentration leading to 50% cell death against renal cancer TK-10 cell line was reported; conditions: Homo sapiens, read-out: Log LC50 (the source's name) (converted)
MDA-N = test: Log of molar concentration leading to 50% cell death against breast cancer MDA-Ncell line was reported; conditions: Homo sapiens, read-out: Log LC50 (the source's name) (converted)
OVCAR-8 = test: In vitro growth inhibition against ovarian cancer OVCAR-8 cell line was reported.; conditions: Homo sapiens
SNB-19 = test: Log of molar concentration leading to 50% cell death against CNS cancer SNB-19 cell line was reported; conditions: Homo sapiens, read-out: Log LC50 (the source's name) (converted)
NCI-H322M = test: Log of molar concentration leading to 50% cell death against non-small-cell lung cancer NCI-H322M cell line was reported; conditions: Homo sapiens, read-out: Log LC50 (the source's name) (converted)
Tumor Cell line = test: In vitro inhibition of 50% cell growth was reported as log of molar concentration for 60 cell lines.; conditions: Homo sapiens
HCT-15 [9] = test: Log of molar concentration leading to 50% cell death against colon cancer HCT-15 cell line was reported; conditions: Homo sapiens, read-out: Log LC50 (the source's name) (converted)
NCI-H226 [10] = test: In vitro total growth inhibition against non-small-cell lung cancer NCI-H226 cell lines was reported.; conditions: Homo sapiens, read-out: Log TGI (converted)
UACC-257 [11] = test: Log of molar concentration leading to 50% cell death against melanoma UACC-257 cell line was reported; conditions: Homo sapiens, read-out: Log LC50 (the source's name) (converted)
HCT-15 [12] = test: In vitro total growth inhibition against colon cancer HCT-15 cell lines was reported.; conditions: Homo sapiens, read-out: Log TGI (converted)
MOLT-4 = test: Log of molar concentration leading to 50% cell death against leukemia MOLT-4 cell line was reported; conditions: Homo sapiens, read-out: Log LC50 (the source's name) (converted)
NCI-H23 [13] = test: In vitro growth inhibition against non-small-cell lung cancer NCI-H23 cell line was reported.; conditions: Homo sapiens
786-0 [14] = test: In vitro growth inhibition against renal cancer […] cell line was reported.; conditions: Homo sapiens
A498 [15] = test: Log of molar concentration leading to 50% cell death against renal cancer A498 cell line was reported; conditions: Homo sapiens, read-out: Log LC50 (the source's name) (converted)
NCI-H23 [16] = test: Log of molar concentration leading to 50% cell death against non-small-cell lung cancer NCI-H23 cell line was reported; conditions: Homo sapiens, read-out: Log LC50 (the source's name) (converted)
KM12 = test: In vitro total growth inhibition against colon cancer KM12 cell lines was reported.; conditions: Homo sapiens, read-out: Log TGI (converted)
SF-268 = test: In vitro total growth inhibition against CNS cancer SF-268 cell lines was reported.; conditions: Homo sapiens, read-out: Log TGI (converted)
CAKI-1 = test: Log of molar concentration leading to 50% cell death against renal cancer CAKI-1 cell line was reported; conditions: Homo sapiens, read-out: Log LC50 (the source's name) (converted)
OVCAR-3 = test: Log of molar concentration leading to 50% cell death against ovarian cancer OVCAR-3 cell line was reported; conditions: Homo sapiens, read-out: Log LC50 (the source's name) (converted)
T47D = test: Log of molar concentration leading to 50% cell death against breast cancer […] cell line was reported; conditions: Homo sapiens, read-out: Log LC50 (the source's name) (converted)

## O=C(Nc1cccc2nsnc12)c1cc2c(cc1Cl)Sc1nccn1S2(=O)=O
MCF7
  CC50: 6.61 µM
A498 [1]
  TGI: 26.3 µM
UACC-257 [2]
  TGI: 3.39 µM
786-0 [3]
  CC50: 55 µM
UO-31
  CC50: 50.1 µM
NCI-H226 [4]
  CC50: 58.9 µM
OVCAR-4
  GI50: 2.75 µM
A498 [5]
  GI50: 13.5 µM
SK-MEL-5
  GI50: 15.8 µM
NCI-H226 [6]
  GI50: 19.1 µM
SK-MEL-28
  CC50: 46.8 µM
HL-60
  TGI: 3.72 µM
SK-MEL-2
  TGI: 25.7 µM
SN12C [7]
  CC50: 56.2 µM
SNB-75
  TGI: 26.9 µM
SW-620
  GI50: 12 µM
SN12C [8]
  TGI: 28.8 µM
COLO 205
  GI50: 17.4 µM
NCI-H522
  TGI: 22.4 µM
PC-3
  TGI: 3.55 µM
RXF 393
  GI50: 4.68 µM
NCI-H46
  GI50: 2.04 µM
BT-549
  CC50: 85.1 µM
TK-10
  CC50: 50.1 µM
MDA-N
  CC50: 56.2 µM
OVCAR-8
  GI50: 2.34 µM
SNB-19
  CC50: 50.1 µM
NCI-H322M
  CC50: 5.75 µM
Tumor Cell line
  GI50: 45.7 µM
HCT-15 [9]
  CC50: 72.4 µM
NCI-H226 [10]
  TGI: 33.1 µM
UACC-257 [11]
  CC50: 6.31 µM
HCT-15 [12]
  TGI: 21.4 µM
MOLT-4
  CC50: 83.2 µM
NCI-H23 [13]
  GI50: 11.7 µM
786-0 [14]
  GI50: 16.6 µM
A498 [15]
  CC50: 63.1 µM
NCI-H23 [16]
  CC50: 55 µM
KM12
  TGI: 3.89 µM
SF-268
  TGI: 16.2 µM
CAKI-1
  CC50: 51.3 µM
OVCAR-3
  CC50: 6.61 µM
T47D
  CC50: 7.76 µM
